According to patent US8034819B2, “Glucokinase activator” (Kyorin Pharmaceutical Co., Ltd., priority 2007, dated 2011):

Each molecule was assayed on ICR mice (assay: Hypoglycemic activity test). Conditions: compared with compound 1 of the invention.
Assay type: in vivo
Experimental: Using ICR mice (male, 7 to 9 weeks, Charles River Laboratories Japan Inc.) the effects of each of the tested compounds on blood glucose levels were measured. Each compound was dissolved in a mixture of 60/40 of Gelucire 44/14 (trade name, manufactured by Gatefosse) and PEG 400, and the resulting mixture was orally administered (30 mg/kg, 10 mL/kg) to the mice, which had not been fed for two hours. Blood was collected by a blood collection tube coated with dipotassium ethylenediamine tetraacetate from the tail vein before administration (pre-value) and at points 0.5, 2, and 4 hours after administration. The collected blood was separated by centrifugation (4° C., 3,600×g, 3 minutes), to obtain blood plasma samples.
Each sample was diluted 5-fold with physiological saline, and the blood glucose level was measured using glucose CII-test Wako (trade name, manufactured by Wako Pure Chemical Industries Ltd.). 10 μL each of one of the samples, physiological saline, and 100 mg/dL of glucose standard solution (200 mg/dL of glucose standard solution diluted two-fold with physiological saline) were placed in each well of a 96 well flat bottom plate. Then, 150 μL per well of a developing solution was added, and the color was developed by standing for 5 minutes at 37° C. Measurement was carried out at OD 505 nm using an En Vision 2103 Multilabel Reader (trade name, manufactured by PerkinElmer). The decrease in Σ glucose from the decrease in glucose of each collected point with respect to the pre-value (average of the decrease in glucose of each collected point with respect to the pre-value) was calculated.

Structure (SMILES) | hypoglycemic activity (in words)
O=C(Nc1nccs1)C(C[C@H]1C[C@@H](F)[C@@H](F)C1)c1ccc(S(=O)(=O)C2CC2)cc1 (single isomer, unassigned; (+)) [Reference Example 3, (+)-2-[4-(Cyclopropylsulfonyl)phenyl]-3-[(1α,3α,4α)-3,4-difluorocyclopentyl]-N-(thiazol-2-yl)propionamide] | do not exhibit high hypoglycemic activity
O=C(Nc1nccs1)C(CC1CC(F)C(F)C1)c1ccc(S(=O)(=O)C2CC2)cc1 (single isomer, unassigned; (-)) [(−)-2-[4-(Cyclopropylsulfonyl)phenyl]-3-[(1β,3α,4α)-3,4-difluorocyclopentyl]-N-(thiazol-2-yl)propionamide] | do not exhibit high hypoglycemic activity
O=C(Nc1nccs1)C(CC1CC(F)C(F)C1)c1ccc(S(=O)(=O)C2CC2)cc1 (single isomer, unassigned; (+)) [(+)-2-[4-(cyclopropylsulfonyl)phenyl]-3-[(1β,3α,4α)-3,4-difluorocyclopentyl]-N-(thiazol-2-yl)propionamide] | do not exhibit high hypoglycemic activity
